Experimental data published in patent publication EP0609289B1, “IMIDAZOLE DERIVATIVES AND PHARMACEUTICAL COMPOSITIONS CONTAINING THE SAME” (THE UPJOHN COMPANY, priority 1991, dated 1993).

Molecular target: Angiotensin II receptor
Assay: In vitro angiotensin II mesenteric artery receptor binding assay (test 1)
Conditions: rat mesenteric artery membrane fraction, 0.2 nM 125I-Ang II, 22°C, 90 minutes
Description: I) In vitro angiotensin II mesenteric artery receptor binding assay
According to the method (1) by Gunther et al., a membrane fraction was prepared from mesenteric artery of male rat, […] protein equivalent of it and 0.2 nM ^125I-Ang II as well as various concentrations of test compounds were incubated at 22°C for 90 minutes in an incubation buffer (50 mM Tris-HCl, 120 mM NaCl, 5 mM MgCl2. 0.25% bovine serum albumin, pH 7.2) (reaction volume; 200 µl). The incubated was cooled, and the reaction was stopped by addition of ice-cooled phosphate buffer (10 mM phosphate, 140 mM NaCI, pH 7.4, hereinafter referred to as PBS), and then the reaction solution was filtered through a glass fiber filter (Whatman CF/B), the filter was washed, dried, and then the radioactivity of captured ^125I-angiotensin II which bound to the receptor was measured by a γ-counter. Non-specific bound amount was obtained from the reaction in the presence of 1 µM of unlabeled angiotensin II. […] Res., 17:278-286, 1980].

Row | Compound | IC50
1 | CCCCc1nc2c(=O)n3n(c(=O)c2n1Cc1ccc(-c2ccccc2-c2nn[nH]n2)cc1)CCCC3 [Compound No. 47, 2-n-butyl-5,6,7,8-tetrahydro-1-[(2'-(1H-tetrazol-5-yl)biphenyl-4-yl)methyl]-1H-1,3,4a,8a-tetraza-cyclopentanaphthalene-4,9-dione] | 5.3 nM
2 | CCCc1nc2c(=O)n3n(c(=O)c2n1Cc1ccc(-c2ccccc2-c2nn[nH]n2)cc1)CC(C)=C(C)C3 [Compound No. 67, 5,8-dihydro-6,7-dimethyl-2-n-propyl-1-[(2'-(1H-tetrazol-5-yl)biphenyl-4-yl)methyl]-1H-1,3,4a,8a-tetraza-cyclopentanaphthalene-4,9-dione] | 14 nM
3 | CCCCc1nc2c(=O)n3n(c(=O)c2n1Cc1ccc(-c2ccccc2-c2nn[nH]n2)cc1)C1(C(=O)OC)CCC3CC1 [Compound No. 156, methyl 2-n-butyl-5,8-ethano-4,9-dioxo-5,6,7,8-tetrahydro-1-[{2'-(1H-tetrazol-5-yl)biphenyl-4-yl}methyl]-1H-1,3,4a,8a-tetraza-cyclopentanaphthalene-8-carboxylate] | 69 nM
4 | CCCCc1nc2c(=O)n3n(c(=O)c2n1Cc1ccc(-c2ccccc2-c2nn[nH]n2)cc1)C1CCC3(C(=O)OC)CC1 [Compound No. 159, methyl 2-n-butyl-5,8-ethano-4,9-dioxo-5,6,7,8-tetrahydro-1-[{2'-(1H-tetrazol-5-yl)biphenyl4-yl}methyl]-1H-1,3,4a,8a-tetraza-cyclopentanaphthalene-5-carboxylate] | 5.1 nM
5 | CCCCc1nc2c(=O)n3n(c(=O)c2n1Cc1ccc(-c2ccccc2-c2nn[nH]n2)cc1)C1(C(=O)OCC)CCC3CC1 [Compound No. 198, ethyl 2-n-butyl-4,9-dioxo-5,8-ethano-5,6,7,8-tetrahydro-1-[{2'-(1H-tetrazol-5-yl)biphenyl-4-yl}methyl]-1H-1,3,4a,8a-tetraza-cyclopentanaphthalene-8-carboxylate] | > 100 nM
6 | CCCc1nc2c(=O)n3n(c(=O)c2n1Cc1ccc(-c2ccccc2-c2nnn[nH]2)cc1)C(C(=O)N(CC)CC)CCC3C (centres unmarked) [Compound No. 205, 4,9-dioxo-5-methyl-2-n-propyl-5,6,7,8-tetrahydro-1-[{2'-(1H-tetrazol-5-yl)biphenyl-4-yl}methyl]-1H-1,3,4a,8a-tetraza-cyclopentanaphthalene-8-carboxy-N,N-diethylamide] | 47 nM
7 | CCCc1nc2c(=O)n3n(c(=O)c2n1Cc1ccc(-c2ccccc2-c2nnn[nH]2)cc1)C1(COCC(=O)OC(C)(C)C)CCC3CC1 [Compound No. 225, 8-t-butoxycarboxylmethoxymethyl-5,8-ethano-2-n-propyl-5,6,7,8-tetrahydro-1-[{2'-(1H-tetrazol-5-yl)biphenyl-4-yl}methyl]-1H-1,3,4a,8a-tetraza-cyclopentanaphthalene-4,9-dione] | 66 nM

Results, then the compound that gave them:

Row | IC50 | Compound
8 | > 100 nM | 2-n-butyl-5-hydroxymethyl-8-methyl-5,6,7,8-tetrahydro-1H,4H-1,3,4a,8a-tetraza-cyclopentanaphthalene-9-one [Compound No. 541]
9 | 34 nM | 2-n-butyl-8-hydroxymethyl-5-methyl-5,6,7,8-tetrahydro-1H,4H-1,3,4a,8a-tetraza-cyclopentanaphthalene-9-one [Compound No. 542]
10 | 58 nM | CCCc1nc2c(=O)n3n(c(=O)c2n1Cc1ccc(-c2ccccc2-c2nnn[nH]2)cc1)C(C(=O)NC(C)(C)C)CCC3C (centres unmarked) [Compound No. 209, 4,9-dioxo-5-methyl-2-n-propyl-5,6,7,8-tetrahydro-1-[{2'-(1H-tetrazol-5-yl)biphenyl-4-yl}methyl]-1H-1,3,4a,8a-tetraza-cyclopentanaphthalene-8-carboxy-N-t-butylamide]
11 | 29 nM | CCCCc1nc2c(=O)n3n(c(=O)c2n1Cc1ccc(-c2ccccc2-c2nnn[nH]2)cc1)C(C(=O)NC(C)(C)C)CCC3C (centres unmarked) [Compound No. 210, 2-n-butyl-4,9-dioxo-5-methyl-5,6,7,8-tetrahydro-1-[{2'-(1H-tetrazol-5-yl)biphenyl-4-yl}methyl]-1H-1,3,4a,8a-tetraza-cyclopentanaphthalene-8-carboxy-N-t-butylamide]
